Measured values taken from patent publication US6391902B1, “Substituted benzofuranoindoles and indenoindoles as novel potassium channel openers” (American Home Products Corporation, priority 1998, dated 2002).

Tests used:
Bladder Tissue = experiment: Relaxation of KCl-stimulated isolated rat bladder strips (contractile activity); parameters: species or system Sprague-Dawley rats; conditions: Rattus norvegicus, 0.5 h
Experimental: Sprague-Dawley rats (150-200 g) are rendered unconscious by CO2 asphyxiation and then euthanized by cervical dislocation. The bladder is removed into warm (37° C.) physiological salt solution (PSS) of the following composition (mM): NaCl, 118.4; KCl, 4.7; CaCl2, 2.5; […]; NaHCO3, 24.9; KH2PO4, 1.2; glucose, 11.1; EDTA, 0.023; gassed with 95% O2; […]; pH 7.4. The bladder is opened and then cut into strips 1-2 mm in width and 7-10 mm in length. The strips are subsequently suspended in a 10 mL tissue bath under an initial resting tension of 1.5 g. The strips are held in place by two surgical clips one of which is attached to a fixed hook while the other is attached to an isometric force transducer. […] The carbachol is then washed out and the tissue allowed to relax to its resting level of activity. Following a further 30 min period of recovery an additional 15 mM KCl re introduced into the tissue bath. […] Following stabilization of this enhanced level of contractile activity, incremental increases in the concentration of test compound or vehicle are introduced into the tissue bath. Contractile activity is measured for each compound or vehicle concentration during the last minute of a 30 minute challenge.

Aorta Tissue = experiment: Relaxation of KCl-contracted isolated rat thoracic aortic rings (contractile force); parameters: species or system Sprague-Dawley rats
Experimental: The smooth muscle (aorta) relaxing activity of the compounds of this ivention was established in accordance with standard pharmaceutically accepted test procedures with representative compounds as follows.
Male Sprague-Dawley rats (150-200 g) are rendered unconscious by CO2 asphyxiation and then euthanized by cervical dislocation. The thoracic aorta is removed into warm (37° C.) physiological sial solution (PSS) of the following composition (mM): NaCl, 118.4; KCl, 4.7; CaCl2, 2.5; MgSO4.7H2O, 1.2; NaHCO3, 24.9; KH2PO4, 1.2; glucose, 11.1; EDTA, 0.023; gassed with 95% O2/5% CO2; pH 7.4. The aorta is cleaned of fat and loose adventitia and cut into rings 3-4 mm in width. The rings are subsequently suspended between two stainless steel wire tissue holders in a 10 mL tissue bath. One wire tissue holder is attached to a fixed hook while the other is attached to an isometric force transducer. Resting tension is set at 1 g. The tissues are to recover for a period of 60 min prior to beginning the experiment. Tissues are challenged with PSS containing 25 mM KCl to elicit a contracture. The tissues are then washed repeatedly with fresh PSS over a period of 30 min and allowed to recover to baseline tension. PSS containing 30-35 mM KCl is then introduced into the tissue bath to evoke a contracture that is allowed to stabilize for not less than 45 min. (Other stimuli such as norepinephrine, PGF2a, histamine, angiotensin II, endothelin or PSS containing 80 mM KCl may also be used to evoke a contracture as necessary). Increasing concentrations of test compound or vehicle are then added to the tissue bath in a cumulative fashion.
Isometric force development by the aortic rings is measured using a force transducer and recorded on a polygraph. The percentage inhibition of contractile force evoked by each concentration of a given test compound is used to generate a concentration-response curve. […] [Log concentration versus response curves are approximately linear between 20% and 80% of the maximum response. As such, the IC50 concentration of the drug is determined by linear regression analysis (where x=log concentration and y=% inhibition) of the data points in the 20% to 80% region of the curve.] […] Data collected from 2 animals are averaged for primary screens.

whole rat bladder = experiment: Relaxation of whole rat bladder ex-vivo (partial outlet obstruction, developed bladder pressure); parameters: species or system Spraque-Dawley rats; conditions: isolated whole bladder of rats 6 weeks after partial outlet obstruction, 30 minute challenge
Experimental: Several compound in this invention were tested for their ability to relax a whole rat bladder ex-vivo. The protocol for this assay is as follows.
Female Spraque-Dawley rats weighing between 200-300 g were anesthetized with Nembutol® (50 mg/kg, i.p.). After achieving adequate anesthesia, the bladder and urethra were exposed through a mid-line incision. A 4-0 silk ligature was tied around the proximal end of the urethra in the presence of a 1 mm diameter stainless steel rod. The rod was then removed resulting in a partial outlet obstruction. The wound was closed with surgical staples and the animals received 15,000 units of Bicillin® antibiotic. After a 6 week period the animals were asphyxiated with CO2 gas. Bladders for contractile analysis were placed in a physiological salt solution (PSS) at 37° C. of the following composition (in mM): NaCl (118.4), KCl (4.7), CaCl2 (2.5), MgSO4 (1.2), KH2PO4 (1.2), NaHCO3 (24.9) and D-glucose (11.1) gassed with […] to achieve a pH of 7.4.
The isolated bladders were secured through the urethral opening with a silk ligature to a length of polyethylene tubing (PE-200). […]
Following stabilization, incremental increases in the concentration of test compound or vehicle are introduced into the tissue bath. Contractile activity is measured for each compound or vehicle concentration during the last minute of a 30 minute challenge.

Question: For CC1(C)c2ccc([N+](=O)[O-])cc2-c2[nH]c3c(C(=O)O)cccc3c21 [Example 24, 10,10-Dimethyl-3-nitro-5,10-dihydro-indeno[1,2-b]indole-6-carboxylic acid], which IC50 (Bladder Tissue) is on record?
Answer: 5.2 ± 1.8 µM

Question: What about the IC50 (Aorta Tissue; Rattus norvegicus) of the same compound?
Answer: 17.2 ± 2.3 µM

Question: What about the “Ratio Aorta IC50 / Bladder IC50” value (Aorta Tissue; aorta IC50 divided by bladder IC50, tissue selectivity) of the same compound?
Answer: 3.3

Question: What about the IC50 (whole rat bladder) of the same compound?
Answer: 5 µM

Question: What about the melting point of the same compound?
Answer: 310 °C (dec.)
